The record followed here is PubChem BioAssay AID624129 (Sanford-Burnham Center for Chemical Genomics, 2012).

The source made the active and inactive calls. How the calls were made is not given here.

Holding throughout (assay): potency against CXCR6 with APJ panel – cell-based, beta-arrestin, DiscoveRx, uHTS hits, dose response (AID 624129)
Assay [1] has as its target Apelin receptor (Homo sapiens) (UniProt P35414). The following applies: CXCR6 beta-arrestin (DiscoveRx) antagonist cell assay, APJ.
For assay [2], the target named is C-X-C chemokine receptor type 6 (Homo sapiens) (UniProt O00574). The following applies: CXCR6 beta-arrestin (DiscoveRx) antagonist cell assay.
Assay [3] addresses C-C chemokine receptor type 6 (Homo sapiens) (UniProt P51684). The following applies: CXCR6 beta-arrestin (DiscoveRx) antagonist cell assay.
Assay [4] concerns the target Beta-galactosidase (Escherichia coli) (UniProt Q8VNN2). As to conditions: CXCR6 beta-arrestin (DiscoveRx) antagonist cell assay, b-galactosidase.
[5] abbreviates: dose range 1, mean IC50 across replicates.
Where [6] appears, read: CXCR6, dose range 1, mean IC50 across replicates.
[7] abbreviates: CXCR6, run 1, dose range 2, at 80 µM (top of the series).
[8] abbreviates: CCR6, dose range 1, mean IC50 across replicates.

Chain of C-X-C chemokine receptor type 6 (Homo sapiens) (O00574 whole entry, looked up): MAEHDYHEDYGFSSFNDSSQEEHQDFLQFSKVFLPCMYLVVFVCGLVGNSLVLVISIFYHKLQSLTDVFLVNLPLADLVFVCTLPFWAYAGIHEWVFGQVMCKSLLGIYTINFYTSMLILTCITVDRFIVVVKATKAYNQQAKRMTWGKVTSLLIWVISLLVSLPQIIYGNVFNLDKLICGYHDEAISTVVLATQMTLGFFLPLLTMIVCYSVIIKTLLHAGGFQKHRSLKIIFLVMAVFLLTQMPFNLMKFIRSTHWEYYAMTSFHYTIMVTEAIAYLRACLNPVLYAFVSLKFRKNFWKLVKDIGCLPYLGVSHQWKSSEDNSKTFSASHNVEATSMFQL
Chain of Beta-galactosidase (Escherichia coli) (Q8VNN2 whole entry, looked up): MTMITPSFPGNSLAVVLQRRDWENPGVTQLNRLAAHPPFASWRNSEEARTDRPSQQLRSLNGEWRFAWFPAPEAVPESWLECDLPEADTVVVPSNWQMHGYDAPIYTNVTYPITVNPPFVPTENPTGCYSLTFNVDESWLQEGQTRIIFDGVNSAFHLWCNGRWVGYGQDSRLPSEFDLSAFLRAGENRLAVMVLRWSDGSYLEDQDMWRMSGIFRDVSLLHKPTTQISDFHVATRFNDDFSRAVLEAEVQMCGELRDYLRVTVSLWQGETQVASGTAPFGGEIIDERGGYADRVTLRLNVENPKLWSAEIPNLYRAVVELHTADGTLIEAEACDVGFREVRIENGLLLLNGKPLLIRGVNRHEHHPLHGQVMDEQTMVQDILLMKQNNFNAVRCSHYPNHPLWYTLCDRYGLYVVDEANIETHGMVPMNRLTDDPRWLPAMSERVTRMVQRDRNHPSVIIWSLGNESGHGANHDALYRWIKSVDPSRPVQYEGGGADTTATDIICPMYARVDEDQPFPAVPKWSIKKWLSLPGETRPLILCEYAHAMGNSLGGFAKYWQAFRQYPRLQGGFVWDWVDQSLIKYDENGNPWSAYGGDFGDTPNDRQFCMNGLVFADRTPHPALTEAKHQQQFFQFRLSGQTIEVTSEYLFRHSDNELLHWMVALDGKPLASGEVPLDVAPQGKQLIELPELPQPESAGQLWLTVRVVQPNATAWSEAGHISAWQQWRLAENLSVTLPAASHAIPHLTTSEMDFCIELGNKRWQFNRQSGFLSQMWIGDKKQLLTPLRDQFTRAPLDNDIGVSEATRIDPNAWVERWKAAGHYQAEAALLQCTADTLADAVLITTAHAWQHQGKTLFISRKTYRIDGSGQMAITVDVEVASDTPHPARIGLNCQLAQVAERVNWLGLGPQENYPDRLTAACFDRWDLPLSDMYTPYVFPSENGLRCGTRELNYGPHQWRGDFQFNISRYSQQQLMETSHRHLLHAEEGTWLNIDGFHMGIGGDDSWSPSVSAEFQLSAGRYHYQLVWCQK

On to `CCOC(=O)c1c(SCCN2CCCC2)n(-c2ccccc2)c(=S)n(-c2ccccc2)c1=O`, for which the IC50 (commonly the concentration needed to halve the response being measured) in assay [1] (setting [5]) is greater than 80 µM; in assay [1] (run 2, dose range 1), greater than 80 µM; in assay [1] (run 3, dose range 1), greater than 80 µM; in assay [2] (CXCR6, dose range 1) it was > 80 µM (inactive); in assay [2] (setting [6]), greater than 80 µM; in assay [2] (CXCR6, run 2, dose range 1), greater than 80 µM. Moreover, the IC50 in assay [3] (setting [8]) is greater than 80 µM; in assay [3] (CCR6, run 2, dose range 1) it was greater than 80 µM; in assay [4] (dose range 1), > 80 µM (inactive); in assay [4] (setting [5]), greater than 80 µM. For the same compound, the inhibition – broadly, the change of the read-out against control, counted positive when it falls – in assay [2] (setting [7]) is -8.52%.
For the compound `O=C1C=CC2(O[C@H](c3ccccc3)[C@@H](c3ccccc3)O2)[C@H](Sc2ccccc2O)C1`, the half-maximal inhibitory concentration (IC50) was 1.65 µM in assay [1] (dose range 1); 3.05 µM in assay [1] (setting [5]); 5.03 µM in assay [1] (run 2, dose range 1); 2.46 µM in assay [1] (run 3, dose range 1); 8.69 µM in assay [2] (CXCR6, dose range 1); 6.31 µM in assay [2] (setting [6]). Moreover, the IC50 in assay [2] (CXCR6, run 2, dose range 1) was 3.94 µM; in assay [3] (CCR6, dose range 1), 2.26 µM; in assay [3] (setting [8]) it was 3.07 µM; in assay [3] (CCR6, run 2, dose range 1) it was 3.87 µM; in assay [4] (dose range 1) it was > 80 µM (inactive); in assay [4] (setting [5]), greater than 80 µM. Further, the inhibition in assay [2] (setting [7]) is 121%.
As for `Cc1ccnc(N2C(=O)c3cccc4c([N+](=O)[O-])ccc(c34)C2=O)c1`, the IC50 is 4.63 µM in assay [1] (dose range 1); 5.01 µM in assay [1] (setting [5]); 5.47 µM in assay [1] (run 2, dose range 1); 4.92 µM in assay [1] (run 3, dose range 1); 4.5 µM in assay [2] (CXCR6, dose range 1); 3.54 µM in assay [2] (setting [6]). Moreover, the IC50 was 2.58 µM in assay [2] (CXCR6, run 2, dose range 1); 2.2 µM in assay [3] (CCR6, dose range 1); 2.6 µM in assay [3] (setting [8]); 3 µM in assay [3] (CCR6, run 2, dose range 1); > 80 µM (inactive) in assay [4] (dose range 1); greater than 80 µM in assay [4] (setting [5]). For the same compound, in assay [2] (setting [7]), the inhibition was found to be 129%.
As for `CCN(c1ccccc1)S(=O)(=O)c1ccc(NC(=O)c2nc(S(C)(=O)=O)ncc2Cl)cc1`, the IC50 in assay [1] (dose range 1) is 16.2 µM; in assay [1] (setting [5]) it was 16 µM; in assay [1] (run 2, dose range 1), 15.3 µM; in assay [1] (run 3, dose range 1) it was 16.4 µM; in assay [2] (CXCR6, dose range 1), 10.8 µM; in assay [2] (setting [6]), 10.9 µM. Further, the IC50 was 10.5 µM in assay [2] (CXCR6, run 1, dose range 2); 11.5 µM in assay [2] (CXCR6, run 2, dose range 1); 10.8 µM in assay [2] (CXCR6, run 2, dose range 2); 11.6 µM in assay [3] (CCR6, dose range 1); 11 µM in assay [3] (setting [8]); 10.3 µM in assay [3] (CCR6, run 2, dose range 1). The IC50 was > 80 µM (inactive) in assay [4] (dose range 1) and greater than 80 µM in assay [4] (setting [5]).
With `Cc1ccc(/C=N/NC(=S)N2CCOCC2)cc1`, the half-inhibitory concentration (IC50) is 4.87 µM in assay [1] (dose range 1); 5.15 µM in assay [1] (setting [5]); 5.63 µM in assay [1] (run 2, dose range 1); 4.93 µM in assay [1] (run 3, dose range 1); 4.96 µM in assay [2] (CXCR6, dose range 1); 3.83 µM in assay [2] (setting [6]). Also, the IC50 in assay [2] (CXCR6, run 1, dose range 2) is 3.14 µM; in assay [2] (CXCR6, run 2, dose range 1), 4.53 µM; in assay [2] (CXCR6, run 2, dose range 2) it was 2.7 µM; in assay [3] (CCR6, dose range 1), 3.58 µM; in assay [3] (setting [8]) it was 4.25 µM; in assay [3] (CCR6, run 2, dose range 1), 4.93 µM. The IC50 in assay [4] (dose range 1) was > 80 µM (inactive); in assay [4] (setting [5]), greater than 80 µM.
With `COc1ccc(C(=O)/C=C/C(=O)N(CC(=O)NC2CCCCC2)CC2CCCO2)c(O)c1` (stereo not drawn), the IC50 in assay [1] (setting [5]) is greater than 80 µM; in assay [1] (run 2, dose range 1) it was greater than 80 µM; in assay [1] (run 3, dose range 1), greater than 80 µM; in assay [2] (CXCR6, dose range 1), > 80 µM (inactive); in assay [2] (setting [6]) it was greater than 80 µM; in assay [2] (CXCR6, run 2, dose range 1), greater than 80 µM. For the same compound, the IC50 in assay [3] (setting [8]) was greater than 80 µM; in assay [3] (CCR6, run 2, dose range 1) it was greater than 80 µM; in assay [4] (dose range 1), > 80 µM (inactive); in assay [4] (setting [5]) it was greater than 80 µM. In addition, the inhibition in assay [2] (setting [7]) was -34.5%.
As for `COC(=O)C1=C(c2ccc(-c3ccccc3)c(F)c2)C[C@@H]2CC[C@H]1N2C(=O)N1CCC(C)CC1`, the IC50 in assay [1] (dose range 1) is 8.49 µM; in assay [1] (setting [5]) it was 10.9 µM; in assay [1] (run 2, dose range 1), 13.8 µM; in assay [1] (run 3, dose range 1) it was 10.3 µM; in assay [2] (setting [6]), 11.2 µM; in assay [2] (CXCR6, run 2, dose range 1), 10.8 µM. Also, the IC50 was 4.9 µM in assay [3] (CCR6, dose range 1); 8.25 µM in assay [3] (setting [8]); 11.6 µM in assay [3] (CCR6, run 2, dose range 1); > 80 µM (inactive) in assay [4] (dose range 1); greater than 80 µM in assay [4] (setting [5]). The IC50 entry in assay [2] (CXCR6, dose range 1) was “inactive”. For the same compound, the inhibition in assay [2] (setting [7]) was found to be 88%.
With `C=C1C(=O)[C@]23C[C@H]1CCC2[C@@]1(C)C(C[C@@H]3O)[C@](C)(C(=O)OC)CC[C@@H]1OC(C)=O` (stereo partly drawn), the IC50 in assay [1] (dose range 1) is 9.62 µM; in assay [1] (setting [5]), 21.3 µM; in assay [1] (run 2, dose range 1), 8.73 µM; in assay [1] (run 3, dose range 1) it was 45.6 µM; in assay [2] (CXCR6, dose range 1) it was 7.07 µM; in assay [2] (setting [6]), 7.02 µM. For the same compound, the IC50 is 8.75 µM in assay [2] (CXCR6, run 1, dose range 2); 5.41 µM in assay [2] (CXCR6, run 2, dose range 1); 6.85 µM in assay [2] (CXCR6, run 2, dose range 2); 4.15 µM in assay [3] (CCR6, dose range 1); 4.67 µM in assay [3] (setting [8]); 5.2 µM in assay [3] (CCR6, run 2, dose range 1). The IC50 in assay [4] (dose range 1) was > 80 µM (inactive); in assay [4] (setting [5]), greater than 80 µM.
For `O=C1C=CC(=O)N1c1cccc(-c2ccccc2)c1`, the half-maximal inhibitory concentration (IC50) in assay [1] (setting [5]) is 22.8 µM; in assay [1] (run 2, dose range 1), 22.8 µM; in assay [1] (run 3, dose range 1) it was greater than 80 µM; in assay [2] (CXCR6, dose range 1), 9.66 µM; in assay [2] (setting [6]), 9.66 µM; in assay [2] (CXCR6, run 2, dose range 1) it was greater than 80 µM. The IC50 was 47 µM in assay [3] (CCR6, dose range 1); 47 µM in assay [3] (setting [8]); greater than 80 µM in assay [3] (CCR6, run 2, dose range 1); > 80 µM (inactive) in assay [4] (dose range 1); greater than 80 µM in assay [4] (setting [5]). The inhibition in assay [2] (setting [7]) came out at 21.2%.
With `Cc1ccc(-c2oc3ccccc3c(=O)c2O)cc1`, the IC50 was 22.8 µM in assay [1] (dose range 1); 14.7 µM in assay [1] (setting [5]); 12.2 µM in assay [1] (run 2, dose range 1); 9.18 µM in assay [1] (run 3, dose range 1); 7.44 µM in assay [2] (CXCR6, dose range 1); 6.98 µM in assay [2] (setting [6]). For the same compound, the IC50 in assay [2] (CXCR6, run 2, dose range 1) was 6.53 µM; in assay [3] (setting [8]), 9.06 µM; in assay [3] (CCR6, run 2, dose range 1) it was 9.06 µM; in assay [4] (dose range 1) it was > 80 µM (inactive); in assay [4] (setting [5]) it was greater than 80 µM. Further, in assay [2] (setting [7]), the inhibition worked out at 28.7%.
In the case of `CN(O)C(=S)c1ccccc1`, the IC50 is 2.41 µM in assay [1] (dose range 1); 4.68 µM in assay [1] (setting [5]); 6.23 µM in assay [1] (run 2, dose range 1); 5.39 µM in assay [1] (run 3, dose range 1); 1.67 µM in assay [2] (CXCR6, dose range 1); 1.58 µM in assay [2] (setting [6]). In addition, the IC50 in assay [2] (CXCR6, run 2, dose range 1) is 1.48 µM; in assay [3] (CCR6, dose range 1), 0.724 µM; in assay [3] (setting [8]) it was 1.31 µM; in assay [3] (CCR6, run 2, dose range 1) it was 1.89 µM; in assay [4] (dose range 1), > 80 µM (inactive); in assay [4] (setting [5]), greater than 80 µM. Also, the inhibition in assay [2] (CXCR6, run 1, dose range 2, at 40 µM (top of the series)) was determined as 90.8%.
In the case of `COc1cc2c(cc1OC)C1(CCCC1)CNC2c1cccc([N+](=O)[O-])c1` (stereo not drawn), the IC50 in assay [1] (dose range 1) is 19.9 µM; in assay [1] (setting [5]) it was 21.9 µM; in assay [1] (run 2, dose range 1), 21 µM; in assay [1] (run 3, dose range 1), 24.6 µM; in assay [2] (setting [6]), 14.1 µM; in assay [2] (CXCR6, run 2, dose range 1), 12 µM. In addition, the IC50 in assay [3] (CCR6, dose range 1) is 11.9 µM; in assay [3] (setting [8]) it was 12.4 µM; in assay [3] (CCR6, run 2, dose range 1) it was 13 µM; in assay [4] (dose range 1) it was > 80 µM (inactive); in assay [4] (setting [5]), greater than 80 µM. The IC50 result in assay [2] (CXCR6, dose range 1) was “inactive”. Also, the inhibition in assay [2] (setting [7]) was 126%.
